# Source: PMC8373063 (2021)
# Legend:
# [1] = tested on: RNA Seq4 (immobilised) (RNA, single strand) AAGAAGGAAGGUGC; assay: SPR, immobilised RNA; conditions: running buffer not shown; SMN-C2 up to 20 μM
# [2] = tested on: RNA Seq8 (RNA, single strand) UGAAGGAAGUU; assay: fluorescence polarization; conditions: 100 mM NaCl; 20 mM HEPES, 25 °C; 0.5 μM SMN-C2
# [3] = tested on: RNA Seq9 (RNA, single strand) UUAAGGAAGUU; assay: fluorescence polarization; conditions: 100 mM NaCl; 20 mM HEPES, 25 °C; 0.5 μM SMN-C2
# [4] = tested on: RNA Seq10 (RNA, single strand) UAAAGGAAGGU; assay: fluorescence polarization; conditions: 100 mM NaCl; 20 mM HEPES, 25 °C; 0.5 μM SMN-C2
# [5] = tested on: RNA Seq13 (RNA, single strand) UGAAGAAAGGU; assay: fluorescence polarization; conditions: 100 mM NaCl; 20 mM HEPES, 25 °C; 0.5 μM SMN-C2
# [6] = tested on: RNA Seq14 (RNA, single strand) AGAAGGUAGGU; assay: fluorescence polarization; conditions: 100 mM NaCl; 20 mM HEPES, 25 °C; 0.5 μM SMN-C2
# [7] = tested on: RNA Seq15 (RNA, single strand) UGAAGGAUGGU; assay: fluorescence polarization; conditions: 100 mM NaCl; 20 mM HEPES, 25 °C; 0.5 μM SMN-C2
# [8] = tested on: RNA Seq16 (RNA, single strand) UGAAGGAAAGU; assay: fluorescence polarization; conditions: 100 mM NaCl; 20 mM HEPES, 25 °C; 0.5 μM SMN-C2
# [9] = tested on: RNA Seq18 (binding site 1 sequence) (RNA, mismatch bulge abasic, pseudouridine at 5 and 6 of strand 1) AUACUUACCU/GGAGGUAAGUCU; assay: fluorescence polarization; conditions: 100 mM NaCl; 20 mM HEPES, 25 °C; 0.5 μM SMN-C2
# [10] = tested on: DNA Seq6 (DNA, single strand) TGAAGGAAGGT; assay: fluorescence polarization; conditions: 100 mM NaCl, 1 mM MgCl2; 20 mM HEPES, 25 °C; 0.5 μM SMN-C2
# [11] = tested on: DNA Seq9 (DNA, single strand) TTAAGGAAGTT; assay: fluorescence polarization; conditions: 100 mM NaCl, 1 mM MgCl2; 20 mM HEPES, 25 °C; 0.5 μM SMN-C2
# [12] = tested on: DNA Seq10 (DNA, single strand) TAAAGGAAGGT; assay: fluorescence polarization; conditions: 100 mM NaCl, 1 mM MgCl2; 20 mM HEPES, 25 °C; 0.5 μM SMN-C2
# [13] = tested on: DNA Seq11 (DNA, single strand) TGGAGGAAGGT; assay: fluorescence polarization; conditions: 100 mM NaCl, 1 mM MgCl2; 20 mM HEPES, 25 °C; 0.5 μM SMN-C2
# [14] = tested on: DNA Seq12 (DNA, single strand) TGAAAGAAGGT; assay: fluorescence polarization; conditions: 100 mM NaCl, 1 mM MgCl2; 20 mM HEPES, 25 °C; 0.5 μM SMN-C2
# [15] = tested on: DNA Seq13 (DNA, single strand) TGAAGAAAGGT; assay: fluorescence polarization; conditions: 100 mM NaCl, 1 mM MgCl2; 20 mM HEPES, 25 °C; 0.5 μM SMN-C2
# [16] = tested on: RNA Seq4 (RNA, single strand) AAGAAGGAAGGUGC; assay: fluorescence polarization; conditions: 100 mM NaCl; 20 mM HEPES, 25 °C, 0.5 μM compound
# [17] = tested on: DNA Seq2 (DNA, single strand) GAAGGAAGG; assay: fluorescence polarization; conditions: 100 mM NaCl, 1 mM MgCl2; 20 mM HEPES, 25 °C; 0.5 μM SMN-C2
# [18] = tested on: DNA S26 (DNA, single strand) TGAAGGAAGG; assay: fluorescence polarization; conditions: 100 mM NaCl, 1 mM MgCl2; 20 mM HEPES, 25 °C; 0.5 μM SMN-C2
# [19] = tested on: DNA S27 (DNA, single strand) AGAAGGAAGG; assay: fluorescence polarization; conditions: 100 mM NaCl, 1 mM MgCl2; 20 mM HEPES, 25 °C; 0.5 μM SMN-C2
# [20] = tested on: DNA S8 (DNA, single strand) AAATGAAGGAAGGTGCTC; assay: fluorescence polarization; conditions: 100 mM NaCl, 1 mM MgCl2; 20 mM HEPES, 25 °C; 0.5 μM SMN-C2
# [21] = tested on: DNA S9 (DNA, single strand) AAAATAAGGAAGGTGCTC; assay: fluorescence polarization; conditions: 100 mM NaCl, 1 mM MgCl2; 20 mM HEPES, 25 °C; 0.5 μM SMN-C2
# [22] = tested on: DNA S18 (DNA, single strand) AAAAGGAGGAAGGTGCTC; assay: fluorescence polarization; conditions: 100 mM NaCl, 1 mM MgCl2; 20 mM HEPES, 25 °C; 0.5 μM SMN-C2
# [23] = tested on: DNA S19 (DNA, single strand) AAAAGAGGGAAGGTGCTC; assay: fluorescence polarization; conditions: 100 mM NaCl, 1 mM MgCl2; 20 mM HEPES, 25 °C; 0.5 μM SMN-C2
# [24] = tested on: S4 (DNA, single strand) AAAAAGAAGAAGGTGCTC; assay: fluorescence polarization; conditions: 100 mM NaCl, 1 mM MgCl2; 20 mM HEPES, 25 °C, 0.5 μM compound
# [25] = tested on: S7 (DNA, single strand) AATAGAAGGAAGGTGCTC; assay: fluorescence polarization; conditions: 100 mM NaCl, 1 mM MgCl2; 20 mM HEPES, 25 °C, 0.5 μM compound
# [26] = tested on: S12 (DNA, single strand) AAAAGAAGTAAGGTGCTC; assay: fluorescence polarization; conditions: 100 mM NaCl, 1 mM MgCl2; 20 mM HEPES, 25 °C, 0.5 μM compound
# [27] = tested on: S13 (DNA, single strand) AAAAGAAGGTAGGTGCTC; assay: fluorescence polarization; conditions: 100 mM NaCl, 1 mM MgCl2; 20 mM HEPES, 25 °C, 0.5 μM compound
# [28] = tested on: S15 (DNA, single strand) AAAAGAAGGAATGTGCTC; assay: fluorescence polarization; conditions: 100 mM NaCl, 1 mM MgCl2; 20 mM HEPES, 25 °C, 0.5 μM compound
# [29] = tested on: S16 (DNA, single strand) AAAAGAAGGAAGTTGCTC; assay: fluorescence polarization; conditions: 100 mM NaCl, 1 mM MgCl2; 20 mM HEPES, 25 °C, 0.5 μM compound
# [30] = tested on: S21 (DNA, single strand) AAAAAAAGGAAGGTGCTC; assay: fluorescence polarization; conditions: 100 mM NaCl, 1 mM MgCl2; 20 mM HEPES, 25 °C, 0.5 μM compound
# [31] = tested on: S23 (DNA, single strand) AAAAGAAGAAAGGTGCTC; assay: fluorescence polarization; conditions: 100 mM NaCl, 1 mM MgCl2; 20 mM HEPES, 25 °C, 0.5 μM compound
# [32] = tested on: S25 (DNA, single strand) AAAAGAAGGAAGATGCTC; assay: fluorescence polarization; conditions: 100 mM NaCl, 1 mM MgCl2; 20 mM HEPES, 25 °C, 0.5 μM compound
# [33] = tested on: RNA Seq20 (RNA, hairpin) UGAAGGAAGGUUUCGACCUUCCUUCA; assay: fluorescence polarization; conditions: 100 mM NaCl; 20 mM HEPES, 25 °C, 0.5 μM compound
# [34] = tested on: RNA Seq21 (RNA, hairpin) GCGCCGACUGAAGGAAGGAGUCGGCGC; assay: fluorescence polarization; conditions: 100 mM NaCl; 20 mM HEPES, 25 °C, 0.5 μM compound
# [35] = tested on: DNA Seq22 (DNA, other) GTGCCAGTTCGCTGGCACTGAAGGAAGGT; assay: fluorescence polarization; conditions: 100 mM NaCl, 1 mM MgCl2; 20 mM HEPES, 25 °C, 0.5 μM compound
# [36] = tested on: DNA Seq23 (DNA, mismatch bulge abasic) GCCAGGCGCACTTTCGAGTGCGCGAAGGAAGGCTGGC; assay: fluorescence polarization; conditions: 100 mM NaCl, 1 mM MgCl2; 20 mM HEPES, 25 °C, 0.5 μM compound
# [37] = tested on: RNA Seq23 (RNA, mismatch bulge abasic) GCCAGGCGCACUUUCGAGUGCGCGAAGGAAGGCUGGC; assay: fluorescence polarization; conditions: 100 mM NaCl; 20 mM HEPES, 25 °C, 0.5 μM compound
structure (smiles),measurement,setting,value
CCN1CCN(c2ccc3cc(-c4cn5cc(C)nc(C)c5n4)c(=O)oc3c2)C[C@@H]1C,Kd,[1],5.4 µM
same,Kd,[2],> 100 µM
same,Kd,[3],> 100 µM
same,Kd,[4],> 100 µM
same,Kd,[5],> 100 µM
same,Kd,[6],9.9 ± 0.8 µM
same,Kd,[7],9.4 ± 0.5 µM
same,Kd,[8],77.0 ± 26.0 µM
same,Kd,[9],60 ± 36 µM
same,Kd,[10],3.1 ± 0.7 µM
same,Kd,[11],> 100 µM
same,Kd,[12],> 100 µM
same,Kd,[13],57.3 ± 20.0 µM
same,Kd,[14],17.6 ± 3.4 µM
same,Kd,[15],> 100 µM
same,Kd,[16],21.7 ± 4.3 µM
same,Kd,[17],34.3 ± 9.6 µM
same,Kd,[18],6.2 ± 1.0 µM
same,Kd,[19],11.6 ± 1.7 µM
same,Kd,[20],12.4 ± 0.4 µM
same,Kd,[21],56.2 ± 13.9 µM
same,Kd,[22],> 50 µM
same,Kd,[23],21.0 ± 1.1 µM
same,Kd,[24],> > 50 µM
same,Kd,[25],17.3 ± 1.7 µM
same,Kd,[26],37.4 ± 6.7 µM
same,Kd,[27],26.4 ± 2.2 µM
same,Kd,[28],31.4 ± 4 µM
same,Kd,[29],48.9 ± 12.2 µM
same,Kd,[30],> > 50 µM
same,Kd,[31],> > 50 µM
same,Kd,[32],48 ± 7.8 µM
same,Kd,[33],> >100 μM
same,Kd,[34],4.6 ± 0.6 µM
same,Kd,[35],10.0 ± 0.5 µM
same,Kd,[36],1.1 ± 0.2 µM
same,Kd,[37],5.6 ± 1.7 µM
